# Literature values, collected in article PMC10620911 (ACS Omega, 2023).
# Settings: structure-dependent
compound,measurement,value
Cc1noc(-c2ccc(-c3ccc(C4(C(=O)O)CC4)cc3)cc2)c1NC(=O)O[C@H](C)c1ccccc1 [BMS-986020],hepatobiliary toxicity,hepatobiliary toxicity
